# Results published in ChEMBL document CHEMBL4000234, “Synthesis and antiviral evaluation of novel heteroarylpyrimidines analogs as HBV capsid effectors” (Bioorg Med Chem Lett, 2017).
# What was measured:
# [1] = tested on: Hepatitis B virus; assay: Antiviral activity against HBV infected in human HepAD38 cells assessed as inhibition of DNA replication after 5 days by RT-PCR method; assay type: functional, cell-based; details: HePAD38, 120 h
# [2] = tested on: PBMC; assay: (§1) Cytotoxicity against human PBMC assessed as growth inhibition by CellTiter 96 non-radioactive cell proliferation colorimetric assay; assay type: cell-based
# [3] = tested on: HepG2; assay: (§2) Cytotoxicity against human HepG2 cells assessed as growth inhibition by CellTiter 96 non-radioactive cell proliferation colorimetric assay; assay type: cell-based; details: hepg2
# [4] = tested on: CCRF-CEM; assay: (§3) Cytotoxicity against human CEM cells assessed as growth inhibition by CellTiter 96 non-radioactive cell proliferation colorimetric assay; assay type: cell-based; details: ccrf-cem
# [5] = tested on: Vero; assay: (§4) Cytotoxicity against African green monkey Vero cells assessed as growth inhibition by CellTiter 96 non-radioactive cell proliferation colorimetric assay; assay type: cell-based; details: chlorocebus sabaeus, vero
# [6] = as §1; assay type: cell-based
# [7] = as §2; assay type: cell-based; details: HepG2 cells
# [8] = as §3; assay type: cell-based, CCRF-CEM; details: CEM cells (CCRF-CEM)
# [9] = as §4; assay type: cell-based; details: chlorocebus sabaeus, Vero cells
SMILES,EC50 [1],CC50 [2],CC50 [3],CC50 [4],CC50 [5],CC50 [6],CC50 [7],CC50 [8],CC50 [9]
COC(=O)C1=C(Cn2cc[n+](C)c2)NC(c2ccccn2)=NC1c1ccc(F)cc1Cl (stereo unspecified),> 10 µM,44 µM,> 100 µM,23 µM,> 100 µM,,,,
CCS(=O)(=O)CC1=C(C(=O)OC)C(c2ccc(F)cc2Cl)N=C(c2ccccn2)N1 (stereo unspecified),> 10 µM,> 100 µM,> 100 µM,39 µM,> 100 µM,,,,
CC(=O)NC1=C(C)NC(c2ccccn2)=NC1c1ccc(F)cc1Cl (stereo unspecified),> 10 µM,> 100 µM,80 µM,> 100 µM,> 100 µM,,,,
COC(=O)C1=C(CN2CCOCC2)NC(c2ccccn2)=NC1c1ccc(F)cc1Cl (racemic),0.45 to 0.5 µM,> 100 µM,> 100 µM,> 100 µM,> 100 µM,,,,
CC1(C)CC(=O)c2c(Cc3ccc(F)cc3Cl)nc(-c3ccccn3)nc2C1,> 10 µM,69 µM,42 µM,9 µM,29 µM,,,,
Nc1ccn([C@@H]2CS[C@H](CO)O2)c(=O)n1 [LAMIVUDINE],0.04 µM,,,,,> 100 µM,10 to 100 µM,> 100 µM,> 100 µM
Fc1ccc(C2N=C(c3ccccn3)NC(CN3CCOCC3)=C2I)c(Cl)c1 (stereo unspecified),4 µM,> 100 µM,> 100 µM,11 µM,45 µM,,,,
COC(=O)C1=C(CN=[N+]=[N-])NC(c2ccccn2)=NC1c1ccc(F)cc1Cl (stereo unspecified),5.3 µM,> 100 µM,> 100 µM,> 100 µM,56 µM,,,,
CCOP(=O)(CC1=C(C(=O)OC)C(c2ccc(F)cc2Cl)N=C(c2ccccn2)N1)OCC (stereo unspecified),> 10 µM,65 µM,> 100 µM,15 µM,43 µM,,,,
CCOC(=O)C1=C(CN2CCOCC2)NC(c2nccs2)=NC1c1ccc(F)cc1Br (racemic),0.3 µM,,,,,,,,
COC(=O)c1c(Cc2ccccc2)nc(-c2ccccn2)nc1CN1CCOCC1,> 10 µM,81 µM,> 100 µM,2 µM,59 µM,,,,
CC1=C(C(=O)OCC(F)(F)F)C(c2ccc(F)cc2Cl)N=C(c2ccccn2)N1 (stereo unspecified),> 10 µM,> 100 µM,> 100 µM,4 µM,65 µM,,,,
CCCC[n+]1ccn(CC2=C(C(=O)OC)C(c3ccc(F)cc3Cl)N=C(c3ccccn3)N2)c1 (stereo unspecified),> 10 µM,20 µM,14 µM,3 µM,> 100 µM,,,,
COCCOCc1nc(-c2ccccn2)nc(Cc2ccccc2)c1C(=O)OC,> 10 µM,99 µM,≥ 100 µM,55 µM,87 µM,,,,
COC(=O)c1c(Cc2ccccc2)nc(-c2ccccn2)nc1CN1CCN(C)CC1,> 10 µM,> 100 µM,> 100 µM,86 µM,> 100 µM,,,,
COC(=O)C1=C(CS(=O)(=O)Cc2ccc(C)cc2)NC(c2ccccn2)=NC1c1ccc(F)cc1Cl (stereo unspecified),> 10 µM,67 µM,> 100 µM,47 µM,≥ 100 µM,,,,
CC1=C(Br)C(c2ccc(F)cc2Cl)N=C(c2ccccn2)N1 (stereo unspecified),5.2 µM,> 100 µM,79 µM,23 µM,16 µM,,,,
COC(=O)C1=C(CN2CCN(C)CC2)NC(c2ccccn2)=NC1Cc1ccccc1 (stereo unspecified),> 10 µM,> 100 µM,14 µM,17 µM,76 µM,,,,
CC1=C(Cl)C(c2ccc(F)cc2Cl)N=C(c2ccccn2)N1 (stereo unspecified),> 10 µM,> 100 µM,98 µM,44 µM,13 µM,,,,

# Further lines, with some results ahead:
EC50 [1],SMILES,CC50 [2],CC50 [3],CC50 [4],CC50 [5],CC50 [6],CC50 [7],CC50 [8],CC50 [9]
> 10 µM,COC(=O)C1=C(CSc2ccccc2)NC(c2ccccn2)=NC1Cc1ccccc1 (stereo unspecified),> 100 µM,96 µM,5 µM,> 100 µM,,,,
> 10 µM,CC1(C)CC(=O)c2c(Cc3ccccc3)nc(-c3ccccn3)nc2C1,43 µM,47 µM,21 µM,53 µM,,,,
> 10 µM,CC1(C)CC(=O)c2c(Cc3ccc(F)cc3Cl)nc(-c3cccnc3)nc2C1,> 100 µM,> 100 µM,86 µM,≥ 100 µM,,,,
> 10 µM,COC(=O)C1=C(C)NC(c2ccccn2)=NC1Cc1ccccc1 (stereo unspecified),52 µM,> 100 µM,61 µM,> 100 µM,,,,
> 10 µM,CC1(C)CC(=O)C2=C(C1)NC(c1cccnc1)=NC2c1ccc(F)cc1Cl (racemic),> 100 µM,> 100 µM,> 100 µM,> 100 µM,,,,
> 10 µM,CC1=C(C(=O)SC(C)C)C(c2ccc(F)cc2Cl)N=C(c2ccccn2)N1 (stereo unspecified),31 µM,> 100 µM,13 µM,40 µM,,,,
> 10 µM,CC1=C(C(=O)NS(=O)(=O)N(C)C)C(c2ccc(F)cc2Cl)N=C(c2ccccn2)N1 (stereo unspecified),> 100 µM,> 100 µM,> 100 µM,≥ 100 µM,,,,
> 10 µM,COC(=O)c1c(Cc2ccc(F)cc2Cl)nc(-c2ccccn2)nc1CN1CCOCC1,34 µM,69 µM,11 µM,71 µM,,,,
4.1 µM,CC1=C(I)C(c2ccc(F)cc2Cl)N=C(c2ccccn2)N1 (stereo unspecified),80 µM,> 100 µM,74 µM,29 µM,,,,
> 10 µM,CC1(C)CC(=O)c2c(Cc3ccc(F)cc3Cl)nc(-c3ccncc3)nc2C1,> 100 µM,≥ 100 µM,≥ 100 µM,10 µM,,,,
> 10 µM,COC(=O)c1c(CSc2ccccc2)nc(-c2ccccn2)nc1Cc1ccccc1,65 µM,> 100 µM,9 µM,12 µM,,,,
> 10 µM,CC(=O)NC1=C(CN2CCOCC2)NC(c2ccccn2)=NC1c1ccc(F)cc1Cl (stereo unspecified),28 µM,> 100 µM,69 µM,18 µM,,,,
> 10 µM,COC(=O)c1c(C)nc(-c2ccccn2)nc1Cc1ccccc1,67 µM,41 µM,4 µM,61 µM,,,,
7.1 µM,CC1=C(I)C(c2ccc(F)cc2Br)N=C(c2nccs2)N1 (stereo unspecified),80 µM,> 100 µM,33 µM,> 100 µM,,,,
5.7 µM,Fc1ccc(C2N=C(c3nccs3)NC(CN3CCOCC3)=C2I)c(Br)c1 (stereo unspecified),75 µM,> 100 µM,33 µM,> 100 µM,,,,
